Like-named read-outs stand apart in the source and are kept apart here.
Experiments:
[1] = Solubility in solvents (dissolution in incubator, filtration through microfilter, visible absorption); format: physicochemical
Text: The solubility of some of the compounds within formula (I) was accurately measured.
The measurement of solubility was made in the following manner.

[2] = Spectral sensitization of photographic silver halide emulsion; design: Yellow filter sensitivity (SY) / Red filter sensitivity (SR): scale not given here; conditions: for Red filter sensitivity (SR): red filter SC-60, 5 seconds exposure; for Maximum Sensitization: spectrogram, tungsten light source of 2666° K.
Method: A silver halide emulsion comprising pure silver bromide and having a cubic crystal form (the area ratio of the plane to the entire surface area of grain being 92%) was prepared and subjected to a sulfur sensitization treatment. The average diameter of silver halide grains contained in the emulsion was 0.68 μm, and 0.74 mol of silver halide per kg of emulsion was contained in the emulsion. One kg of the emulsion was weighed in each of pots. An aqueous solution of each of the compounds of formula (I) indicated in Tables 4 and 5 was added to the pot, and the mixture was mixed with stirring at 40° C. For the purpose of comparison, comparative compounds 1 and 2 wherein counter ion was iodide were dispersed in water and added to respective pots.
Further, 4-hydroxy-6-methyl-1,3,3a,7-tetraazaindene in an amount of 0.1 g/kg of emulsion, sodium salt of 2,4-dichloro-6-hydroxy-1,3,5-triazine in an amount of 0.1 g/kg of emulsion and sodium dodecylbenzenesulfonate in an amount of 0.1 g/kg of emulsion in order were added thereto. The emulsion was then coated on a polyethylene terephthalate film to obtain a photographic material.
Each of these samples was exposed through an optical wedge for 5 seconds by using a yellow filter (SC-50, a product of Fuji Photo Film Co., Ltd.) or a red filter (SC-60, a product of Fuji Photo Film Co., Ltd.) and tungsten light (5400° K.).
A spectrogram was obtained by using a grating spectrograph having a tungsten light source of 2666° K., and the maximum sensitization was measured.
After exposure, the samples were developed at 20° C for 4 minutes by using the following developing solution. The density of each of the developed films was measured by using a densitometer (manufactured by Fuji Photo Film Co., Ltd. Spectral sensitivity, that is, yellow filter sensitivity (SY) or red filter sensitivity (SR), sensitivity (SB) in the sensitive region inherent in silver halide, and fog were determined. Sensitivity was determined when the standard point of optical density was referred to as (Fog+0.2). Composition of Developing Solution […]
Two volumes of water were added thereto to obtain a working solution when used.

[3] = standard point Fog+0.2, Table 5

Compound	Water solubility (in words) ([1]; water)	Spectral sensitization performance (in words) ([2]; added to emulsion as aqueous solution or aqueous dispersion)	Red filter sensitivity (SR) [2, 3]	Maximum Sensitization ([2]; Table 5) [nm]	Solubility in MeOH ([1]; MeOH, 37° C., 12 hours, Table 2, 720 min) [mg/mL]	solubility at 12 h ([1]; water, H2O, 37° C., 12 hours, Table 2, read-out: Solubility in H2O) [µg/mL]	Maximum Sensitization ([2]; Table 4) [nm]	Yellow filter sensitivity (SY) ([2]; yellow filter SC-50, 5 seconds exposure, standard point Fog+0.2, Table 4)	solubility at 12 h ([1]; water, Table 3, read-out: Solubility in Water) [µg/mL]
CCn1c(=CC2=CC(=Cc3sc4cc(C)c(C)cc4[n+]3CC)CC(C)(C)C2)sc(=C2Sc3ccccc3N2C)c1=O [Comparative Compound 2, reference compound]	low solubility in water	the desired spectral sensitivity cannot be obtained	100	747	–	–	–	–	–
CCn1c(=Cc2oc3c4ccccc4ccc3[n+]2CC)sc(=C2Sc3ccccc3N2C)c1=O [Compound 134]	–	–	–	–	> 10	6900	520	1350	–
CCn1c(=CC2=CC(=Cc3sc4ccccc4[n+]3CC)Oc3ccccc32)sc(=C2Sc3ccc(OC)cc3N2C)c1=O [Compound 150]	–	–	905	695	–	–	–	–	2100
